According to patent US8937058B2, “17-hydroxy-19-nor-21-carboxylic acid-steroid γ-lactone derivative, use thereof, and medicament containing the derivative” (priority 2007, dated 2015):
Where two headings read alike, the source gives them in different places.

Assays:
[1] = target: T1, mineralocorticoid receptor (Homo sapiens (Human), UniProt P08235); assay: Mineralocorticoid receptor binding test (displacement of 3H-aldosterone, cytosol from Hi5 insect cells); conditions: reference substance 3H-aldosterone
T1 sequence (P08235 whole entry): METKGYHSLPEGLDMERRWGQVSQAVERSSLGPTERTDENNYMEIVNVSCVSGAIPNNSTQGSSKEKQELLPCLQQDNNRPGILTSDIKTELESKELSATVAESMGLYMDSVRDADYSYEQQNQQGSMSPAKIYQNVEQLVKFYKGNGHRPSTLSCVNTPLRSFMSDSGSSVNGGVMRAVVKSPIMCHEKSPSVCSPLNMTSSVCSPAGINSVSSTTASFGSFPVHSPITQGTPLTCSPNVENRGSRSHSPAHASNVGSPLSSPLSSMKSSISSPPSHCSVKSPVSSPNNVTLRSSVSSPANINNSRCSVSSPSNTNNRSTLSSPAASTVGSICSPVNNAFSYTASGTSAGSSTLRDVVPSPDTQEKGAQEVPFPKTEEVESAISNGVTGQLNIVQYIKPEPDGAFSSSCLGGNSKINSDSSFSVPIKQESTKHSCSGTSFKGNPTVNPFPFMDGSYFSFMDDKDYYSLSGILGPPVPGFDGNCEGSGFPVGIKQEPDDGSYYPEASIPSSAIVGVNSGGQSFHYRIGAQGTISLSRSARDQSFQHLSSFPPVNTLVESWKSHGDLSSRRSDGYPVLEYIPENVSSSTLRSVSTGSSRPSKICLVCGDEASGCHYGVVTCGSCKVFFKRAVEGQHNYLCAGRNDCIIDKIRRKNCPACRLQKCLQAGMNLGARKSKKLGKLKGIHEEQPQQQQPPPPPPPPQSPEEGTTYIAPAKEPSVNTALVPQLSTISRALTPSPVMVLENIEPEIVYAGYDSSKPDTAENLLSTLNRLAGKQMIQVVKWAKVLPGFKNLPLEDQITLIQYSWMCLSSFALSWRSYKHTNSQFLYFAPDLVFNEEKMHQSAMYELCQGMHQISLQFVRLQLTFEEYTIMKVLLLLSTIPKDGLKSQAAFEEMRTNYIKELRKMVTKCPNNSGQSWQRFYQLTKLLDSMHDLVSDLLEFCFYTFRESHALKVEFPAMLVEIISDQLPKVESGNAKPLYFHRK
Procedure: 2. Mineralocorticoid Receptor Binding Test:
The test was carried out as in 1., with the following modifications: cytosol from mineralocorticoid receptor-expressing insect cells (Hi5) was used, and the reference substance was ^3H-aldosterone.

androgen receptor [2] = target: T2, androgen receptor (Homo sapiens (Human), UniProt P10275); conditions: for IC50: read-out: Androgen receptor IC50, receptor binding, 3H-testosterone displacement; for Androgen receptor Competition factor: reference substance 3H-testosterone
T2 sequence (P10275 whole entry, species assumed): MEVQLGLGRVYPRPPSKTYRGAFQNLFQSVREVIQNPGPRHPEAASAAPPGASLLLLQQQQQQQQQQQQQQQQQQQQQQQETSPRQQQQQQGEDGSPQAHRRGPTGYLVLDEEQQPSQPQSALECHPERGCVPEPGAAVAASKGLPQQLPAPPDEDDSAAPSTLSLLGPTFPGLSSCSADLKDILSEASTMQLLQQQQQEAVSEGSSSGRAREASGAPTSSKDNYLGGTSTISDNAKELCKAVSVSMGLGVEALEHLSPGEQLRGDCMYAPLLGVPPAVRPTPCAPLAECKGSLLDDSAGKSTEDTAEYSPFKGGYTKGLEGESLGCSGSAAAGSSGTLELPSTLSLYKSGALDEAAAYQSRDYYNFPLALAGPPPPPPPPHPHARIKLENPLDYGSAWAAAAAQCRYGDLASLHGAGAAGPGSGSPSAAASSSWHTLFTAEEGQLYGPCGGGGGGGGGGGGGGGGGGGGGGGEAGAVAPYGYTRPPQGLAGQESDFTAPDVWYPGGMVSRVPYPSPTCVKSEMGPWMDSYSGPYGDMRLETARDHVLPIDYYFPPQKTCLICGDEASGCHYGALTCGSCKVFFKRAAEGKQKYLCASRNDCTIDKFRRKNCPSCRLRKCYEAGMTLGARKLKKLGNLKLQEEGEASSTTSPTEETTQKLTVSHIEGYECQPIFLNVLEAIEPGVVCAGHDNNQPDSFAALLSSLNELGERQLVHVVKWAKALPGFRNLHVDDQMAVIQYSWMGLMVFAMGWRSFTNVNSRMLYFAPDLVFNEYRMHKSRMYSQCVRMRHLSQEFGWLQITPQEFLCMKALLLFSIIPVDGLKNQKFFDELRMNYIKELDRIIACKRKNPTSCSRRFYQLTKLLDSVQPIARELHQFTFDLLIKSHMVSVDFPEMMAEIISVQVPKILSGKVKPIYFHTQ
Procedure: 3. Androgen Receptor Binding Test:
The test was carried out as in 1., with the following modifications: cytosol from androgen receptor-expressing insect cells (Hi5) was used, and the reference substance was ^3H-testosterone.

[3] = target: fusion protein from the PR-ligand-binding domain and a Gal4-transactivation domain (Homo sapiens (Human), UniProt P06401); assay: cell-based; conditions: for Progesterone receptor Agonism EC50 / Progesterone receptor Agonism efficacy: in-vitro transactivation, CHO K1 reporter cells; for Progesterone receptor Agonism EC50: 16 hours
Sequence of fusion protein from the PR-ligand-binding domain and a Gal4-transactivation domain (P06401 679-913): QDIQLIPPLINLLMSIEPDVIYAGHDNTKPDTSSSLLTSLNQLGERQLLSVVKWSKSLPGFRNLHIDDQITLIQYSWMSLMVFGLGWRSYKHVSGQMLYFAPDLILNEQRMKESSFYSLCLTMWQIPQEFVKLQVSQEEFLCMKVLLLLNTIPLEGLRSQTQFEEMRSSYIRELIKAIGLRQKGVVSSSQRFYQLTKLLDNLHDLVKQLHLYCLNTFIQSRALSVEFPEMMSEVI
Procedure: 4. Determination of Progestational Action by Means of Transactivation Tests:
The test compounds were added eight hours later, and the cells were incubated with the compounds for 16 hours. The tests were carried out in triplicate. At the end of incubation the medium containing the effector was removed and replaced with lysis buffer. After luciferase assay substrate (Promega, #E1501) had been added, the 96-well plates were then put in a microplate luminometer (Pherastar, BMG Labtech), and the luminescence was measured. The IC50 values were evaluated using software for calculating dose-effect relations.

[4] = target: T1, mineralocorticoid receptor; assay: Antimineralocorticoid action by transactivation test (MDCK luciferase reporter cells); type: cell-based; conditions: in-vitro transactivation, 1 nM aldosterone; for IC50: read-out: Mineralocorticoid receptor Antagonism IC50
Procedure: 5. Determination of Antimineralocorticoid Action by Means of Transactivation Tests:
The antimineralocorticoid activity of the test substances was determined as for the transactivation tests described above.
The following modifications were undertaken: In this case reporter cell lines were used (MDCK cells) that express the human mineralocorticoid receptor, and transiently contain a reporter construct that contains luciferase under the control of a steroid hormone-responsive promoter.
For determination of antimineralocorticoid efficacy, 1 nM aldosterone (SIGMA A-6628, Lot 22H4033) was added to the cells, to achieve almost maximum stimulation of the reporter gene. Inhibition of the effect indicated a mineralocorticoid-antagonistic action of the substances (Table 2; for comparison, corresponding values for drospirenone (A)).

androgen receptor [5] = target: T2, androgen receptor; assay: cell-based; conditions: for Androgen receptor Agonism efficacy / Androgen receptor Antagonism efficacy: in-vitro transactivation, PC3 cells; for Androgen receptor Antagonism efficacy: 0.05 nM R1881
Procedure: 6. Determination of Androgenic/Antiandrogenic Action by Means of Transactivation Tests:
The androgenic/antiandrogenic action of the test substances was determined as for the transactivation tests described above.
The following modifications were made: In this case reporter cell lines were used (PC3 cells) that express the androgen receptor, and a reporter construct that contains luciferase under the control of a steroid hormone-responsive promoter.
For determination of the antiandrogenic efficacy, 0.05 nM R1881 was added to the cells, in order to achieve almost maximum stimulation of the reporter gene.

progesterone receptor = progesterone receptor (Homo sapiens (Human), UniProt P06401); conditions: for Progesterone receptor (PR) Competition factor: CF of 1 = affinity of progesterone, CF >1 lower affinity; for CF PR/CF MR: ratio of the competition factors CF(PR) and CF(MR); for IC50: read-out: Progesterone receptor (PR) IC50, receptor binding, 3H-progesterone displacement
Sequence of progesterone receptor (P06401 whole entry, species assumed): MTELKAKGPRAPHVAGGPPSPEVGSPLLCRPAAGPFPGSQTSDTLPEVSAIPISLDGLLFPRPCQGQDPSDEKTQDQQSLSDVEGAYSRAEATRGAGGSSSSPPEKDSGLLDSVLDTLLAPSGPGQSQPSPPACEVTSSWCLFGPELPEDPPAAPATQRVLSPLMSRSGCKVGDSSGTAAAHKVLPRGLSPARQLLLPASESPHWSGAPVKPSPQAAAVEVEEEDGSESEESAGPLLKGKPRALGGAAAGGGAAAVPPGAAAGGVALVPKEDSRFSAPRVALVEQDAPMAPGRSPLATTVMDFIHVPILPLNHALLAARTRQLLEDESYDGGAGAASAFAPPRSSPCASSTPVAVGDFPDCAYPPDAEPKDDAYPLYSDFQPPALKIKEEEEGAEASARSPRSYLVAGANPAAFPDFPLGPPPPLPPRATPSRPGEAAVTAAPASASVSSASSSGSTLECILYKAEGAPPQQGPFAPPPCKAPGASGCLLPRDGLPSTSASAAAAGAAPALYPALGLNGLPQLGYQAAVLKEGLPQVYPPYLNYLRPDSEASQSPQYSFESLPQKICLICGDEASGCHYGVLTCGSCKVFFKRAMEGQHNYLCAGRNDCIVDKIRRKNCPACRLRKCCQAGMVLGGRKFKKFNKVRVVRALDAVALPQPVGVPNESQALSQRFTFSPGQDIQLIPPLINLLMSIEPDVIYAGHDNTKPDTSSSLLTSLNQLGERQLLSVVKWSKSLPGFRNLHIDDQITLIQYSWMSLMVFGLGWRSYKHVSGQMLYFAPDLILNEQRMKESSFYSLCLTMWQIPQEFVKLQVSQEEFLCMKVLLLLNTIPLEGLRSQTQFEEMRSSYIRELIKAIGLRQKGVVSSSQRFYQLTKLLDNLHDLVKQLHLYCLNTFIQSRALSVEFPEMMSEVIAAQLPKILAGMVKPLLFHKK
Procedure: Progesterone Receptor Binding Test:
Using cytosol from progesterone receptor-expressing insect cells (Hi5), competitive binding to the progesterone receptor was determined from the ability to displace ^3H-progesterone as reference substance from the receptor.

| SMILES | Mineralocorticoid receptor (MR) Competition factor [1] | IC50 (androgen receptor [2]) | Androgen receptor Competition factor (androgen receptor [2]) | Progesterone receptor Agonism EC50 [3] | Mineralocorticoid receptor Antagonism efficacy [4] | IC50 [4] | EC50 (androgen receptor [5]) | IC50 (androgen receptor [5]) | Androgen receptor Agonism efficacy (androgen receptor [5]) | Androgen receptor Antagonism efficacy (androgen receptor [5]) | Progesterone receptor (PR) Competition factor (progesterone receptor) | CF PR/CF MR (progesterone receptor) | IC50 (progesterone receptor) | EC50 [3] | Progesterone receptor Agonism efficacy [3] | Mineralocorticoid receptor Antagonism IC50 [4] |
| --- | --- | --- | --- | --- | --- | --- | --- | --- | --- | --- | --- | --- | --- | --- | --- | --- |
| C[C@]12CC[C@H]3[C@@H]([C@H](C4CC4)CC4=CC(=O)CC[C@@H]43)[C@@H]1CC[C@@]21C=CC(=O)O1 (stereo in doubt) [Example 12A, 17β-Hydroxy-7α-cyclopropyl-19-nor-17α-pregna-4,20(Z)-dien-3-one-21-carboxylic acid γ-lactone] | 12.1 | 300 nM | 9.6 | inactive | 116.9% | 110 nM | 67 nM | 48 nM | 21.13% | 69.75% | 109.04 | 9.01 | 2600 nM |  |  |  |
| CC[C@]12CC[C@H]3[C@@H]([C@H](C)CC4=CC(=O)CC[C@@H]43)[C@@H]1CC[C@@]21C=CC(=O)O1 (stereo in doubt) [Example 8A, 17β-Hydroxy-7α,18-dimethyl-19-nor-17α-pregna-4,20(Z)-dien-3-one-21-carboxylic acid γ-lactone] | 1.0 | 43 nM | 1.3 | inactive | 113.8% | 11 nM | 1.7 nM | 1000 nM | 78.75% | 5% | 5.95 | 5.95 | 160 nM |  |  |  |
| C=C[C@@H]1CC2=CC(=O)CC[C@@H]2[C@H]2CC[C@@]3(C)[C@@H](CC[C@@]34C=CC(=O)O4)[C@@H]21 (stereo in doubt) [Example 4A, 17β-Hydroxy-7α-vinyl-19-nor-17α-pregna-4,20(Z)-dien-3-one-21-carboxylic acid γ-lactone] | 18.7 | 130 nM | 4.7 |  | 120.0% | 28 nM | 13 nM | 1000 nM | 53.6% | 5% | 27.47 | 1.47 | 760 nM | 140 nM | 67.5% |  |
| C[C@]12CC[C@H]3[C@@H](CCC4=CC(=O)CC[C@@H]43)[C@@H]1CC1(CC1)[C@@]21C=CC(=O)O1 (stereo in doubt) [Example 5, 16,16-(1,2-Ethanediyl)-17β-hydroxy-19-nor-17α-pregna-4,20(Z)-dien-3-one-21-carboxylic acid γ-lactone] | 12.7 | 310 nM | 33.8 |  | 73.1% | 840 nM | 140 nM | 1000 nM | 37.8% | 5% | 3.31 | 0.26 | 110 nM | 13 nM | 46.9% |  |
| C[C@]12CC[C@H]3[C@@H](CCC4=C(Cl)C(=O)CC[C@@H]43)[C@@H]1CC[C@@]21C=CC(=O)O1 [Example 14, 4-Chloro-17β-hydroxy-19-nor-17α-pregna-4,20(Z)-dien-3-one-21-carboxylic acid γ-lactone] | 39.0 | 140 nM | 7.5 | inactive | 21.6% | 700 nM | 100 nM | 70.5 nM | 22.74% | 63.26% | 53.06 | 1.36 | 1200 nM |  |  |  |
| C=C[C@@H]1CC2=CC(=O)CC[C@@H]2[C@H]2CC[C@@]3(CC)[C@@H](CC[C@@]34C=CC(=O)O4)[C@@H]21 (stereo in doubt) [Example 10A, 17β-Hydroxy-7α-vinyl-18-methyl-19-nor-17α-pregna-4,20(Z)-dien-3-one-21-carboxylic acid γ-lactone] | 5.1 | 50 nM | 1.8 |  | 80.0% | 940 nM | 1.3 nM | 1000 nM | 74.78% | 5% | 18.90 | 3.71 | 450 nM | 140 nM | 52.4% |  |
| CC[C@]12CC[C@H]3[C@@H]([C@H](C4CC4)CC4=CC(=O)CC[C@@H]43)[C@@H]1CC[C@@]21C=CC(=O)O1 (stereo in doubt) [Example 11A, 17β-Hydroxy-7α-cyclopropyl-18-methyl-19-nor-17α-pregna-4,20(Z)-dien-3-one-21-carboxylic acid γ-lactone] | 2.4 | 94 nM | 3.4 |  | 88.8% | 230 nM | 10 nM | 16 nM | 41.38% | 34.45% | 21.03 | 8.76 | 500 nM | 120 nM | 47.7% |  |
| CC[C@]12CC[C@H]3[C@@H](CCC4=C(Cl)C(=O)CC[C@@H]43)[C@@H]1CC[C@@]21C=CC(=O)O1 [Example 13, 4-Chloro-17β-hydroxy-18-methyl-19-nor-17α-pregna-4,20(Z)-dien-3-one-21-carboxylic acid γ-lactone] | 47.0 | 170 nM | 8.3 |  |  |  | 57 nM | 12 nM | 33.71% | 44.18% | 28.06 | 0.60 | 750 nM | 1000 nM | 25.3% | inactive |
